A word on the IC50: it is the concentration needed to halve the response being measured.

Each structure is given as a SMILES string. Bounds are passed on as bounds.

The target in the assay is T1, human ASK1 (Homo sapiens, UniProt Q99683).
T1 construct: a 2.2 kb DNA fragment containing an ASK1 gene was recovered from the gel; made in house; host or cells: Sf-21 insect cells, recombinant baculovirus (pFASTBAC1, Bac-to-Bac)
T1 sequence (Q99683 649-1374 limits assumed): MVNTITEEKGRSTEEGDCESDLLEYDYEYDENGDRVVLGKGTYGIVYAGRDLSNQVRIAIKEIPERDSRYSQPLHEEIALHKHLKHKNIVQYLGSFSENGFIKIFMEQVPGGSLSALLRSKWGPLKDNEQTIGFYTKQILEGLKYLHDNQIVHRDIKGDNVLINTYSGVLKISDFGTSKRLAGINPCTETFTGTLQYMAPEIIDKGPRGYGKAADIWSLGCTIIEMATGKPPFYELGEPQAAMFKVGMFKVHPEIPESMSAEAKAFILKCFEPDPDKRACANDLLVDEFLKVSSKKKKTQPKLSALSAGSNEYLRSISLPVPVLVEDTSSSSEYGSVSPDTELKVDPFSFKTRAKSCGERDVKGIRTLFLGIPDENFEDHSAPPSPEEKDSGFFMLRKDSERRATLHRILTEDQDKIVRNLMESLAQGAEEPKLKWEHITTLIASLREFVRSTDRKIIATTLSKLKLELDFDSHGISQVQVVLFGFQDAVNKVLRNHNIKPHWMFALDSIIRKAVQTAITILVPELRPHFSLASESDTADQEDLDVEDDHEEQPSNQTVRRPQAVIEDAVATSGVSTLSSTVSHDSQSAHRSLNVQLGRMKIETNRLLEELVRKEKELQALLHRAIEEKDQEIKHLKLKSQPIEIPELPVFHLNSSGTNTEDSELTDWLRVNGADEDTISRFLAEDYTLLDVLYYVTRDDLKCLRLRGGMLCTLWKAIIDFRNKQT
Description: Scintillation assay measuring inhibition of ASK1 phosphorylation of myelin basic protein. Type of assay: biochemical. The note with it: active ASK1 protein 30 ng, myelin basic protein 1 μg, [γ-32P]ATP, room temperature 30 min; values given as ranges; read-out: Enzyme Activity IC50. The protocol: Cloning of cDNA encoding human ASK1 was conducted by PCR using primers, 5′-[…] AGAGAAGGGGA-3′ (SEQ ID NO: 1) and 5′-[…]-3′ (SEQ ID NO: 2), from human heart cDNA library (Becton, Dickinson and Company). The PCR product was subjected to agarose gel (1%) electrophoresis, a 2.2 kb DNA fragment containing an ASK1 gene was recovered from the gel, and then digested with restriction enzymes, NotI and SalI, and inserted into a plasmid pFASTBAC1 (Invitrogen) to prepare a plasmid pFB-ASK1. The insert was verified by sequencing. Recombinant baculovirus was prepared according to the procedure of the Bac-to-Bac baculovirus expression system (Invitrogen).
Sf-21 cells were seeded to achieve 1×10^6 cells/mL in 100 mL of Sf-900 II SFM medium (Invitrogen) which contains 10% fetal calf serum and then cultured at 27° C. for 24 hrs. To express ASK1 in cells, 0.15 mL of the recombinant baculovirus virus stock was added to cells, and the then cultured for 60 hrs. The cells were separated from the culture solution by centrifugation at 3000 rpm for 10 min and washed once with PBS. The cells were suspended in 10 mL of lysis buffer (25 mM HEPES (pH 7.5), 1% Triton X, 130 mM NaCl, 1 mM EDTA, 1 mM DTT, 25 mM β-glycerophosphate, Protease inhibitor complete (Roche), 1 mM sodium orthovanadate) and ruptured by four times of treatment with a homogenizer (POLYTRON) at 20000 rpm for 30 seconds. Active ASK1 protein was purified from a supernatant obtained by centrifugal separation at 40000 rpm for 45 min using anti-FLAG M2 Affinity Gel (Sigma).
The test compounds (2.5 μl) dissolved in DMSO were added to wells containing 37.5 μl of the reaction solution (25 mM HEPES (pH 7.5), 10 mM magnesium acetate, 1 mM DTT) including 30 ng of active ASK1 protein and 1 μg of myelin basic protein (Wako), and incubated at room temperature for 5 min. To start the reaction, 10 μL of ATP solution (2.5 μM ATP, 0.1 μCi [γ-^32P]ATP) was added to wells. After incubating at room temperature for 30 min, the reaction was terminated by adding 50 μl of 20% TCA solution. The reaction solution was incubated at 4° C. for 30 min and an acid-insoluble fraction was transferred onto a GF/C filter (Packard) with Cell Harvester (Packard), and washed with 250 mM phosphoric acid. After drying at 45° C. for 60 min., 40 μL of Microscint 0 (Packard) was added and the radioactivity was measured with TopCount (Packard). The concentrations (IC50 value) of the test compounds necessary for 50% inhibition of kinase activity were calculated by PRISM 3.0 (Graphpad Software).
The enzyme activities of selected compounds of the present invention against ASK1 were determined using the assay disclosed in Example A and B. The resulted pIC50 values are reported in Table 1.
For `CC(C)(O)c1ccc(C(=O)Nc2cc(N3CCC[C@H](O)C3)n3nccc3n2)cc1` [Compound 78, (S)—N-(7-(3-hydroxypiperidin-1-yl)pyrazolo[1,5-a]pyrimidin-5-yl)-4-(2-hydroxypropan-2-yl)benzamide], the 50% inhibitory concentration (IC50) fell in the range of 0.1 to 1 µM.

As for `CSc1ccc(-c2cc(NC(=O)c3ccc(C(C)(C)O)cc3)nc3ccnn23)cc1` [Compound 23, 4-(2-hydroxypropan-2-yl)-N-(7-(4-(methylthio)phenyl)pyrazolo[1,5-a]pyrimidin-5-yl)benzamide], the IC50 was less than 0.1 µM.

Turning to `CC(=O)NC1CCN(c2cc(NC(=O)[C@@H]3C[C@H]3c3ccccc3)nc3cc(C)nn23)CC1` [Compound 356, (1R,2R)—N-(7-(4-acetamidopiperidin-1-yl)-2-methylpyrazolo[1,5-a]pyrimidin-5-yl)-2-phenylcyclopropanecarboxamide], the concentration for half-maximal inhibition (IC50) was less than 0.1 µM.

Turning to `CC(=O)NC1CCN(c2cc(NC(=O)[C@@H]3C[C@H]3c3ccc(F)cc3)nc3cc(C)nn23)CC1` (racemic) [Compound 361, N-(7-(4-acetamidopiperidin-1-yl)-2-methylpyrazolo[1,5-a]pyrimidin-5-yl)-2-(4-fluorophenyl)cyclopropanecarboxamide], the half-inhibitory concentration (IC50) was less than 0.1 µM.

Turning to `CC(C)(O)c1ccc(C(=O)Nc2cc(N3CC[C@H](O)C3)n3nccc3n2)cc1` [Compound 70, (S)-4-(2-hydroxypropan-2-yl)-N-(7-(3-hydroxypyrrolidin-1-yl)pyrazolo[1,5-a]pyrimidin-5-yl)benzamide], the IC50 was 0.1 to 1 µM.

Take `CC(C)(C)c1ccc(C(=O)Nc2cc(N3CCCCC3CCO)n3nccc3n2)cc1` (stereo not drawn) [Compound 105, 4-tert-butyl-N-(7-(2-(2-hydroxyethyl)piperidin-1-yl)pyrazolo[1,5-a]pyrimidin-5-yl)benzamide]: the IC50 was less than 0.1 µM.

As for `CC(C)(O)c1ccc(C(=O)Nc2cc(N3CCC(O)CC3)n3nccc3n2)cc1` [Compound 73, N-(7-(4-hydroxypiperidin-1-yl)pyrazolo[1,5-a]pyrimidin-5-yl)-4-(2-hydroxypropan-2-yl)benzamide], the IC50 lay within 0.1 to 1 µM.

`CC(C)(C)c1ccc(C(=O)Nc2cc(-c3cccs3)n3nccc3n2)cc1` [Compound 2, 4-tert-butyl-N-(7-(thiophen-2-yl)pyrazolo[1,5-a]pyrimidin-5-yl)benzamide]: the IC50 is less than 0.1 µM.

Regarding `Cc1cc2nc(NC(=O)[C@@H]3C[C@H]3c3ccc(F)cc3)cc(N3CCC(NC(N)=O)CC3)n2n1` (racemic) [Compound 362, 2-(4-fluorophenyl)-N-(2-methyl-7-(4-ureidopiperidin-1-yl)pyrazolo[1,5-a]pyrimidin-5-yl)cyclopropanecarboxamide], the IC50 was less than 0.1 µM.

Consider `CC(C)(C)c1ccc(C(=O)Nc2cc(N3CCCC(C(N)=O)C3)n3nccc3n2)cc1` (stereo not drawn) [Compound 104, 1-(5-(4-tert-butylbenzamido)pyrazolo[1,5-a]pyrimidin-7-yl)piperidine-3-carboxamide], for which the IC50 is less than 0.1 µM.

As for `CC(C)(C)c1ccc(C(=O)Nc2cc(N3CCc4ccccc4C3)n3nccc3n2)cc1` [Compound 66, 4-tert-butyl-N-(7-(3,4-dihydroisoquinolin-2(1H)-yl)pyrazolo[1,5-a]pyrimidin-5-yl)benzamide], the IC50 is less than 0.1 µM.

As for `CC(C)(O)c1ccc(C(=O)Nc2cc(N3CCC(CCO)CC3)n3nccc3n2)cc1` [Compound 71, N-(7-(4-(2-hydroxyethyl)piperidin-1-yl)pyrazolo[1,5-a]pyrimidin-5-yl)-4-(2-hydroxypropan-2-yl)benzamide], the half-maximal inhibitory concentration (IC50) was less than 0.1 µM.

For `Cc1cc2nc(NC(=O)c3ccc(C(C)(C)CO)cc3)cc(N3CC(O)C3)n2n1` [Compound 97, 4-(1-hydroxy-2-methylpropan-2-yl)-N-(7-(3-hydroxyazetidin-1-yl)-2-methylpyrazolo[1,5-a]pyrimidin-5-yl)benzamide], the IC50 was in the range of 0.1 to 1 µM.

In the case of `CC(C)(C)c1ccc(C(=O)Nc2cc(-c3cccc(CCO)c3)n3nccc3n2)cc1` [Compound 10, 4-tert-butyl-N-(7-(3-(2-hydroxyethyl)phenyl)pyrazolo[1,5-a]pyrimidin-5-yl)benzamide], the IC50 was less than 0.1 µM.

On to `CC(C)(O)c1ccc(C(=O)Nc2cc(-c3ccc(C(F)(F)F)cc3)n3nccc3n2)cc1` [Compound 24, 4-(2-hydroxypropan-2-yl)-N-(7-(4-(trifluoromethyl)phenyl)pyrazolo[1,5-a]pyrimidin-5-yl)benzamide], for which the half-inhibitory concentration (IC50) was 0.1 to 1 µM.

With `CC(C)(O)c1ccc(C(=O)Nc2cc(N3CCCCC3CCO)n3nccc3n2)cc1` (stereo not drawn) [Compound 74, N-(7-(2-(2-hydroxyethyl)piperidin-1-yl)pyrazolo[1,5-a]pyrimidin-5-yl)-4-(2-hydroxypropan-2-yl)benzamide], the IC50 lay within 0.1 to 1 µM.

Turning to `COc1ccc(-c2cc(NC(=O)c3ccc(C(C)(C)C)cc3)nc3ccnn23)cn1` [Compound 13, 4-tert-Butyl-N-(7-(6-methoxypyridin-3-yl)pyrazolo[1,5-a]pyrimidin-5-yl)benzamide], the IC50 was more than 1 µM.

Consider `CC(C)(O)c1ccc(C(=O)Nc2cc(N3CCC[C@@H](C(=O)O)C3)n3nccc3n2)cc1` [Compound 84, (R)-1-(5-(4-(2-hydroxypropan-2-yl)benzamido)pyrazolo[1,5-a]pyrimidin-7-yl)piperidine-3-carboxylic acid], for which the half-inhibitory concentration (IC50) is 0.1 to 1 µM.

For the compound `CC(C)(C)c1ccc(C(=O)Nc2cc(-c3cccc(CC#N)c3)n3nccc3n2)cc1` [Compound 34, 4-tert-butyl-N-{7-[3-(cyanomethyl)phenyl]pyrazolo[1,5-a]pyrimidin-5-yl}benzamide], the IC50 was less than 0.1 µM.

Turning to `CC(C)(O)c1ccc(C(=O)Nc2cc(N3CC[C@@H](O)C3)n3nccc3n2)cc1` [Compound 69, (R)-4-(2-hydroxypropan-2-yl)-N-(7-(3-hydroxypyrrolidin-1-yl)pyrazolo[1,5-a]pyrimidin-5-yl)benzamide], the IC50 lay in the range of 0.1 to 1 µM.

With `CC(C)(O)c1ccc(C(=O)Nc2cc(-c3cccc(CO)c3)n3nccc3n2)cc1` [Compound 6, N-(7-(3-(hydroxymethyl)phenyl)pyrazolo[1,5-a]pyrimidin-5-yl)-4-(2-hydroxypropan-2-yl)benzamide], the IC50 was less than 0.1 µM.

Regarding `CC(C)(O)c1ccc(C(=O)Nc2cc(-c3ccoc3)n3nccc3n2)cc1` [Compound 18, N-(7-(Furan-3-yl)pyrazolo[1,5-a]pyrimidin-5-yl)-4-(2-hydroxypropan-2-yl)benzamide], the IC50 fell in the range of 0.1 to 1 µM.

`Cc1cc2nc(N)cc(-c3cccc(CO)c3)n2n1` [Compound 173, (3-(5-amino-2-methylpyrazolo[1,5-a]pyrimidin-7-yl)phenyl)methanol]: the IC50 is more than 1 µM.

For `CC(O)(c1ccc(C(=O)Nc2cc(-c3cccc(CO)c3)n3nccc3n2)cc1)C(F)(F)F` (stereo not drawn) [Compound 7, N-(7-(3-(hydroxymethyl)phenyl)pyrazolo[1,5-a]pyrimidin-5-yl)-4-(1,1,1-trifluoro-2-hydroxypropan-2-yl)benzamide], the half-inhibitory concentration (IC50) was less than 0.1 µM.

(Values after US8921358B2, “Apoptosis signal-regulating kinase 1 inhibitors” (Takeda Pharmaceutical Company Limited, priority 2008, dated 2014).)
